Measured values reported in patent US11072634B2, “Inhibitors of transglutaminases” (Zedira GmbH, priority 2016, dated 2021).
pIC50: −log10 of the molar value. Where a SMILES comes first, the peptide text is derived from it. [ ]: non-standard residue; d: D form. The star is where a group is joined. Nle(5,6-dioxo,6-NHMe) = CNC(=O)C(=O)CC[C@H](N)C(=O)O; Tic = O=C(O)[C@@H]1Cc2ccccc2CN1; X8 = CC1(C)CC(CC(=O)*)C(=O)O1

Biological target: T1, recombinant human tissue transglutaminase (rhTG2) (Homo sapiens, UniProt P21980)
T1 construct: purchased Zedira 1022 (so in the source); T022)
T1 sequence (P21980 1-687): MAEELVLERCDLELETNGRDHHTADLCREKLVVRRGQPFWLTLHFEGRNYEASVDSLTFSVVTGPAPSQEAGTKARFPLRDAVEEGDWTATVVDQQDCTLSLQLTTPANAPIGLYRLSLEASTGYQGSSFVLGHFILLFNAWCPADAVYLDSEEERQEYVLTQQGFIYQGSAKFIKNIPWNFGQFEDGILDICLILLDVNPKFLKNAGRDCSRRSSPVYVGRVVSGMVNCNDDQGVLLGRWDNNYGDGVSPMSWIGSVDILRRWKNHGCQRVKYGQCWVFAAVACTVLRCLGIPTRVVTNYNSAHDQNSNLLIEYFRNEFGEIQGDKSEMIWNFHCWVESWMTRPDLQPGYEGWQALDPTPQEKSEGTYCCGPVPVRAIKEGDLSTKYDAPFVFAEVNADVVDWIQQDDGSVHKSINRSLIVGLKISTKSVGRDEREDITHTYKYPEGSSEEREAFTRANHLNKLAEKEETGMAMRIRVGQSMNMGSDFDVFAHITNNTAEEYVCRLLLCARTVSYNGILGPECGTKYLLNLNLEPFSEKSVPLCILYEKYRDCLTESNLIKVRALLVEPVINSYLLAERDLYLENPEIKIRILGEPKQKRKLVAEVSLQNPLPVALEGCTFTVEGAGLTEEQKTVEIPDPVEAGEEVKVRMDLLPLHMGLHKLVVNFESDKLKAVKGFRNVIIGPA
Assay: Inhibition of rec. human tissue transglutaminase (fluorescence, Abz-APE(CAD-DNP)QEA-OH)
Type: biochemical
Settings: Table 2, TG2 inhibitors
Protocol: Method for Inhibition Studies of Rec. Human Tissue Transglutaminase (rhTG2)
250 μg lyophilized His-tagged recombinant human tissue transglutaminase (His6-rhTG2, Zedira product 1022) is reconstituted in H2O (volume depends on original volume before lyophilization) resulting in a buffer containing 10 mM Tris-HCl, 150 mM NaCl, 1 mM EDTA, 5 mM DTT, 189 mg/ml maltodextrin, pH=8.1. The rhTG2 stock solution is diluted in buffer (50 mM Tris-HCl, 7.5 mM CaCl2, 150 mM NaCl, pH=7.4) to give a working solution of 100 U/ml (based on the amine-incorporation activity measured using T036, described below).
A 10 mM inhibitor stock solution is prepared in DMSO, and from this stock solution a serial 1:2-fold dilution series is prepared, also in DMSO. Each of these initial dilutions is subsequently diluted 1:50-fold with buffer (50 mM Tris-HCl, 7.5 mM CaCl2, 150 mM NaCl, pH=7.4) to yield the final working dilutions containing 2% (v/v) DMSO. 15 μl of inhibitor working dilution are added per well of a 96 well microtiter plate. As control, 15 μl of a 2% (v/v) DMSO solution prepared using the buffer mentioned above are added per well.
600 μl of His6-rhTG2 working solution are added to 11.4 ml assay buffer (50 mM Iris-HCl, 7.5 mM CaCl2, 150 mM NaCl, 5 mM DTI, 13.4 mM glycine methylester, 50 μM Abz-APE(CAD-DNP)QEA-OH, (Zedira product A102; patent No.: EP 1781807B1), pH=7.4). From this master-mix solution, 285 μl are added per well containing the inhibitor. Increase in fluorescence is measured using λex=313 nm and λem=418 nm at 37° C. for 20 min. A slope of the increase in fluorescence between 10 and 20 min is calculated for determination of the IC50 value (inhibitor concentration at which 50% of the initial TG2 activity is blocked).
Analysis of enzymatic activity is performed by calculation of the slope of an increase in fluorescence intensity. IC50 values are calculated by plotting the enzymatic activity (as percentage from control containing 2% DMSO instead of inhibitor) against the inhibitor concentration. IC50 is defined as the inhibitor concentration blocking 50%) of initial enzyme activity.

Row | pIC50 | SMILES
1 | 7.10 | CCC(CC)CNC(=O)Cn1cccc(NC(=O)[C@H](CCC(=O)C(=O)NC)NC(=O)C2CCN(C)CC2)c1=O [Compound E63, (S)—N1-(1-(2-(2-ethylbutylamino)-2-oxoethyl)-2-oxo-1,2-dihydropyridin-3-yl)-N6-methyl-2-(1-methylpiperidine-4-carboxamido)-5-oxohexanediamide]
2 | 5.30 | CCC(CC)CNC(=O)Cn1cccc(NC(=O)[C@H](CCC(=O)C(=O)NC(C)(C)C)NC(=O)c2cncn2C)c1=O [Compound E21, (S)—N1-tert-butyl-N6-(1-(2-(2-ethylbutylamino)-2-oxoethyl)-2-oxo-1,2-dihydropyridin-3-yl)-5-(1-methyl-1H-imidazole-5-carboxamido)-2-oxonexanediamide]
3 | 6.82 | CCC(CC)CNC(=O)Cn1cccc(NC(=O)[C@H](CCC(=O)C(=O)NC)NS(=O)(=O)c2c(Cl)nc3sccn23)c1=O [Compound E67, (S)-2-(6-chloroimidazo[2,1-b]thiazole-5-sulfonamido)-N1-(1-(2-(2-ethylbutylamino)-2-oxoethyl)-2-oxo-1,2-dihydropyridin-3-yl)-N6-methyl-5-oxohexanediamide]
4 | 7.22 | CCC(CC)CNC(=O)Cn1cc(C)cc(NC(=O)[C@H](CCC(=O)C(=O)NC)NC(=O)c2cncn2C)c1=O [Compound E43, (S)—N1-(1-(2-(2-ethylbutylamino)-2-oxoethyl)-5-methyl-2-oxo-1,2-dihydropyridin-yl)-N6-methyl-2-(1-methyl-1H-imidazole-5-carboxamido)-5-oxohexanediamide]
5 | 6.58 | CCC(CC)CNC(=O)Cn1cccc(NC(=O)[C@H](CCC(=O)C(=O)NC)NC(=S)Nc2ccccc2)c1=O [Compound E70, (S)—N1-(1-(2-(2-ethylbutylamino)-2-oxoethyl)-2-oxo-1,2-dihydropyridin-3-yl)-N6-methyl-5-oxo-2-(3-phenylthioureido)hexanediamide]
6 | 6.35 | CCC(CC)CNC(=O)Cn1cccc(NC(=O)[C@H](CCC(=O)C(N)=O)NC(=O)c2cnccn2)c1=O [Compound E11, (S)—N1-(1-(2-(2-ethylbutylamino)-2-oxoethyl)-2-oxo-1,2-dihydropyridin-3-yl)-5-oxo-2-(pyrazine-2-carboxamido)hexanediamide]
7 | 6.82 | CCC(CC)CNC(=O)Cn1cccc(NC(=O)[C@H](CCC(=O)C(=O)NC)NS(=O)(=O)c2nccn2C)c1=O [Compound E68, (S)—N1-(1-(2-(2-ethylbutylamino)-2-oxoethyl)-2-oxo-1,2-dihydropyridin-3-yl)-N6-methyl-2-(1-methyl-1H-imidazole-2-sulfonamido)-5-oxohexanediamide]
8 | 5.20 | CCC(CC)CNC(=O)Cn1cccc(NC(=O)[C@H](CCCCC(=O)C(=O)NC)NC(=O)c2cncn2C)c1=O [Compound E73, (S)—N1-(1-(2-(2-ethylbutylamino)-2-oxoethyl)-2-oxo-1,2-dihydropyridin-3-yl)-N8-methyl-2-(1-methyl-1H-imidazole-5-carboxamido)-7-oxooctanediamide]
9 | 5.22 | CCC(CC)CNC(=O)Cn1cccc(NC(=O)[C@H](CCC(=O)C(N)=O)NS(=O)(=O)c2cccc3c(N(C)C)cccc23)c1=O [Compound E15, (S)-2-(5-(dimethylamino)naphthalene-1-sulfonamido)-N1-(1-(2-(2-ethylbutylamino)-2-oxoethyl)-2-oxo-1,2-dihydropyridin-3-yl)-5-oxonexanediamide]
10 | 7.22 | CCC(CC)CNC(=O)Cn1cccc(NC(=O)[C@H](CCC(=O)C(=O)NC)NC(=O)[C@@H]2CC(=O)CN2)c1=O [Compound E60, (S)—N1-(1-(2-(2-ethylbutylamino)-2-oxoethyl)-2-oxo-1,2-dihydropyridin-3-yl)-N6-methyl-5-oxo-2-((S)-4-oxopyrrolidine-2-carboxamido)hexanediamide]
11 | 7.02 | CCC(CC)CNC(=O)Cn1cc(Br)cc(NC(=O)[C@H](CCC(=O)C(=O)NC)NC(=O)c2cncn2C)c1=O [Compound E46, (S)—N1-(5-bromo-1-(2-(2-ethylbutylamino)-2-oxoethyl)-2-oxo-1,2-dihydropyridin-3-yl)-N6-methyl-2-(1-methyl-1H-imidazole-5-carboxamido)-5-oxohexanediamide]

Continued, compound first:

Row | SMILES | pIC50
12 | CCC(CC)CNC(=O)Cn1cccc(NC(=O)[C@H](CCC(=O)C(N)=O)NC(=O)c2ccccc2)c1=O [Compound E12, (S)-2-benzamido-N1-(1-(2-(2-ethylbutylamino)-2-oxoethyl)-2-oxo-1,2-dihydropyridin-3-yl)-5-oxonexanediamide] | 6.02
13 | CNC(=O)C(=O)CCC[C@H](NC(=O)c1cncn1C)C(=O)Nc1ccc(S(=O)(=O)N2CCN(C)CC2)cc1 [Compound E72, (S)—N1-methyl-6-(1-methyl-1H-imidazole-5-carboxamido)-N7-(4-(4-methylpiperazin-1-ylsulfonyl)phenyl)-2-oxoheptanediamide] | 5.20
14 | CCC(CC)CNC(=O)Cn1c(C)ccc(NC(=O)[C@H](CCC(=O)C(=O)NC)NC(=O)c2cncn2C)c1=O [Compound E44, (S)—N1-(1-(2-(2-ethylbutylamino)-2-oxoethyl)-6-methyl-2-oxo-1,2-dihydropyridin-3-yl)-N6-methyl-2-(1-methyl-1H-imidazole-5-carboxamido)-5-oxohexanediamide] | 7.10
15 | CCC(CC)CNC(=O)Cn1cccc(NC(=O)[C@H](CCC(=O)C(=O)c2cn(C)cn2)NC(=O)c2cncn2C)c1=O [Compound E81, (S)—N-(1-(1-(2-(2-ethylbutylamino)-2-oxoethyl)-2-oxo-1,2-dihydropyridin-3-ylamino)-6-(1-methyl-1H-imidazol-4-yl)-1,5,6-trioxohexan-2-yl)-1-methyl-1H-imidazole-5-carboxamide] | 6.13
16 | CNC(=O)C(=O)CC[C@H](NC(=O)c1cncn1C)C(=O)Nc1cccn(CC(=O)OCCOC)c1=O [Compound E53, (S)-2-methoxyethyl 2-(3-(2-(1-methyl-1H-imidazole-5-carboxamido)-6-(methylamino)-5,6-dioxohexanamido)-2-oxopyridin-1(2H)-yl)acetate] | 6.12
17 | CCC(CC)CNC(=O)Cn1cccc(NC(=O)[C@H](CCC(=O)C(=O)NOCC2CCCC2)NC(=O)c2cncn2C)c1=O [Compound E79, (S)—N1-(cyclopentylmethoxy)-N6-(1-(2-(2-ethylbutylamino)-2-oxoethyl)-2-oxo-1,2-di-hydropyridin-3-yl)-5-(1-methyl-1H-imidazole-5-carboxamido)-2-oxohexanediamide] | 6.28
18 | CCC(CC)CNC(=O)Cn1cc(C(F)(F)F)cc(NC(=O)[C@H](CCC(=O)C(=O)NC)NC(=O)c2cncn2C)c1=O [Compound E47, (S)—N1-(1-(2-(2-ethylbutylamino)-2-oxoethyl)-2-oxo-5-(trifluoromethyl)-1,2-dihydropyridin-3-yl)-N6-methyl-2-(1-methyl-1H-imidazole-5-carboxamido)-5-oxohexanediamide] | 7.10
19 | CNC(=O)C(=O)CC[C@H](NC(=O)CC1CC(C)(C)OC1=O)C(=O)N[C@@H](Cc1c[nH]cn1)C(=O)N[C@@H](Cc1ccc(O)cc1)C(=O)N1Cc2ccccc2C[C@H]1C(N)=O (stereo partly drawn) [Compound E82, (2S)-N1-((S)-1-((S)-1-((S)-3-carbamoyl-3,4-dihydroisoquinolin-2(1H)-yl)-3-(4-hydroxy-phenyl)-1-oxopropan-2-ylamino)-3-(1H-imidazol-4-yl)-1-oxopropan-2-yl)-2-(2-(5,5-dimethyl-2-oxotetrahydrofuran-3-yl)acetamido)-N6-methyl-5-oxohexanediamide] (X8-[Nle(5,6-dioxo,6-NHMe)]HY[Tic]-NH2) | 5.87
